Assay results from patent US20240100013A1, “SOTAGLIFLOZIN FOR IMPROVING LEFT ATRIAL FUNCTION” (CHARITÉ-UNIVERSITÄTSMEDIZIN BERLIN, priority 2021, published 2024).

How the values were obtained:
[1] = system: high-fat diet/streptozotocin-induced diabetic rats; settings: via improved mitochondrial function; cited from earlier work
LA cardiomyocytes = assay: Spontaneous SR Ca2+ release events (SCaEs) of isolated LA cardiomyocytes; format: cell-based, rat; settings: baseline conditions; antioxidative treatment; both HFpEF groups
Description: Cardiomyocyte isolation. LA and LV cardiomyocytes were isolated using enzymatic digestion as previously described in detail. See Bode D, Guthof T, Pieske B M, Heinzel F R, Hohendanner F: “Isolation of Atrial Cardiomyocytes from a Rat Model of Metabolic Syndrome-related Heart Failure with Preserved Ejection Fraction,” J Vis Exp 2018(137).
Solutions and chemicals. Chemicals were obtained from Sigma-Aldrich (St. Louis, MO, USA) unless noted otherwise. The dual SGLT1/2 inhibitor sotagliflozin was provided by Lexicon Pharmaceuticals (The Woodlands, TX, USA). Fluorescent dyes Fura-2 AM, Rhod-2 AM, MitoTracker red, MitoTracker green, TMRE and H2-DCF were obtained from Thermo Fisher Scientific (Waltham, MA, USA). Tyrode solution contained (in mM): 130 NaCL, 4 KCl, 2 CaCl, 1 MgCl2, 10 Glucose, 10 HEPES; pH adjusted to 7.4 with NaOH. LA cardiomyocytes were plated on laminin-coated glass coverslips. 20 mM caffeine was added to Tyrode solution to induce sarcoplasmic reticulum (SR) Ca^2+ release and obtain a measure of SR Ca^2+ content. […]
Ca^2+ measurements and sarcomere shortening. Radiometric Ca^2+ measurements (excitation: 340 nm and 385 nm, emission: 510±10 nm; [Ca^2+] expressed as the ratio R=F340/F380) were performed either with a CytoCypher MultiCell System (CytoCypher BV, Netherlands; FIGS. 1C-F, 2D-G, 4A-F) or an Axiovert 200 microscope (Zeiss, Oberkochen, Germany) fluorescence imaging assembly (FIGS. 2A-C, 2H-J, 3A-E, 6E-I). […] Experiments were conducted at 37° C. and CaT were recorded at steady state (following electric stimulation).
CaT and sarcomere shortening of LA and LV cardiomyocytes were recorded for 10 s at 3 Hz stimulation. See FIGS. 2D-G, 4A-F. Electric stimulation was turned off and spontaneous SR Ca^2+ release events (See Voigt N, Heijman J, Wang Q, Chiang D Y, Li N, Karck M, Wehrens X H T, Nattel S, Dobrev D: “Cellular and molecular mechanisms of atrial arrhythmogenesis in patients with paroxysmal atrial fibrillation,” Circulation 2014, 129(2):145-156) (SCaEs) immediately recorded for a duration of 10 s (FIG. 1C-F). […]

Row | Structure (SMILES) | diabetes related atrial fibrillation [1] | occurrence of SCaEs (LA cardiomyocytes)
1 | OC[C@H]1O[C@@H](c2ccc(Cl)c(Cc3ccc(O[C@H]4CCOC4)cc3)c2)[C@H](O)[C@@H](O)[C@@H]1O [empagliflozin] | mitigate | 
2 | CC(=O)N[C@@H](CS)C(=O)O [acetylcysteine] |  | decreased
